Species: Rattus norvegicus
Experiment: DrugMatrix - Regimen: Daily Repeat
Format: toxicity, organism-based, Sprague-Dawley
Design: regimen Daily Repeat, gender Male, age 6-8 weeks
Conditions: in vivo, po, route oral GAVAGE, vehicle .5 % CMC; for ABSOLUTE BASOPHIL / ABSOLUTE EOSINOPHIL / ABSOLUTE LYMPHOCYTE / ABSOLUTE MONOCYTE / ABSOLUTE SEGMENTED NEUTROPHIL / BASOPHIL / EOSINOPHIL / ERYTHROCYTE COUNT / HEMATOCRIT / HEMOGLOBIN / LEUKOCYTE COUNT / LYMPHOCYTE / MEAN CORPUSCULAR HEMOGLOBIN / MEAN CORPUSCULAR HEMOGLOBIN CONCENTRATION / MEAN CORPUSCULAR VOLUME / MONOCYTE / NEUTROPHIL / NUCLEATED RED BLOOD CELLS / PLATELET COUNT: tissue Blood; for ALANINE AMINOTRANSFERASE / ALBUMIN / ALKALINE PHOSPHATASE / ASPARTATE AMINOTRANSFERASE / BLOOD UREA NITROGEN / CARBON DIOXIDE / CHLORIDE / CHOLESTEROL / CREATINE PHOSPHOKINASE / CREATININE / GLUCOSE / LACTATE DEHYDROGENASE / LIPASE / PHOSPHORUS / POTASSIUM / SODIUM / TOTAL BILIRUBIN / TOTAL PROTEIN / URIC ACID: tissue Plasma
[1] = 50 mg/kg, 120 h, dose level Low, time 5 day
[2] = 2500 mg/kg, 72 h, dose level High, time 3 day
[3] = 2500 mg/kg, 120 h, dose level High, time 5 day

CC(/C=C1\SC(=S)N(CC(=O)O)C1=O)=C\c1ccccc1
ABSOLUTE BASOPHIL [1]: 0 CELLS/uL | ABSOLUTE EOSINOPHIL [1]: 0 CELLS/uL | ABSOLUTE LYMPHOCYTE [1]: 8755.33 CELLS/uL | ABSOLUTE MONOCYTE [1]: 98 CELLS/uL | ABSOLUTE SEGMENTED NEUTROPHIL [1]: 946.67 CELLS/uL | BASOPHIL [1]: 0% | EOSINOPHIL [1]: 0% | ERYTHROCYTE COUNT [1]: 5.47 x10E6/uL | HEMATOCRIT [1]: 34.63% | HEMOGLOBIN [1]: 14.03 G/DL | LEUKOCYTE COUNT [1]: 9.8 x10E3/uL | LYMPHOCYTE [1]: 89.67% | MEAN CORPUSCULAR HEMOGLOBIN [1]: 25.7 pg | MEAN CORPUSCULAR HEMOGLOBIN CONCENTRATION [1]: 40.53 G/DL | MEAN CORPUSCULAR VOLUME [1]: 63.33 fL | MONOCYTE [1]: 1% | NEUTROPHIL [1]: 9.33% | NUCLEATED RED BLOOD CELLS [1]: 0 /100WBC | PLATELET COUNT [1]: 1226 x10E3/uL | ALANINE AMINOTRANSFERASE [1]: 61.33 u/L | ALBUMIN [1]: 4.5 G/DL | ALKALINE PHOSPHATASE [1]: 418.33 u/L | ASPARTATE AMINOTRANSFERASE [1]: 81.33 u/L | BLOOD UREA NITROGEN [1]: 14.33 mg/dL | CARBON DIOXIDE [1]: 34 mmol/L | CHLORIDE [1]: 100.67 MEQ/L | CHOLESTEROL [1]: 81 mg/dL | CREATINE PHOSPHOKINASE [1]: 171 u/L | CREATININE [1]: 0.12 mg/dL | GLUCOSE [1]: 147.33 mg/dL | LACTATE DEHYDROGENASE [1]: 106.67 u/L | LIPASE [1]: 10 u/L | PHOSPHORUS [1]: 10.83 mg/dL | POTASSIUM [1]: 6.07 MEQ/L | SODIUM [1]: 143.73 MEQ/L | TOTAL BILIRUBIN [1]: 0.2 mg/dL | TOTAL PROTEIN [1]: 6.37 G/DL | URIC ACID [1]: 0.87 mg/dL | ABSOLUTE BASOPHIL [2]: 0 CELLS/uL | ABSOLUTE EOSINOPHIL [2]: 58.67 CELLS/uL | ABSOLUTE LYMPHOCYTE [2]: 8116.67 CELLS/uL | ABSOLUTE MONOCYTE [2]: 158 CELLS/uL | ABSOLUTE SEGMENTED NEUTROPHIL [2]: 700 CELLS/uL | BASOPHIL [2]: 0% | EOSINOPHIL [2]: 0.67% | ERYTHROCYTE COUNT [2]: 6.27 x10E6/uL | HEMATOCRIT [2]: 39% | HEMOGLOBIN [2]: 15.47 G/DL | LEUKOCYTE COUNT [2]: 9.03 x10E3/uL | LYMPHOCYTE [2]: 90% | MEAN CORPUSCULAR HEMOGLOBIN [2]: 24.83 pg | MEAN CORPUSCULAR HEMOGLOBIN CONCENTRATION [2]: 39.77 G/DL | MEAN CORPUSCULAR VOLUME [2]: 62.43 fL | MONOCYTE [2]: 1.67% | NEUTROPHIL [2]: 7.67% | NUCLEATED RED BLOOD CELLS [2]: 0 /100WBC | PLATELET COUNT [2]: 1417 x10E3/uL | ALANINE AMINOTRANSFERASE [2]: 61.33 u/L | ALBUMIN [2]: 3.93 G/DL | ALKALINE PHOSPHATASE [2]: 381 u/L | ASPARTATE AMINOTRANSFERASE [2]: 133.33 u/L | BLOOD UREA NITROGEN [2]: 25 mg/dL | CARBON DIOXIDE [2]: 19 mmol/L | CHLORIDE [2]: 105.33 MEQ/L | CHOLESTEROL [2]: 46 mg/dL | CREATINE PHOSPHOKINASE [2]: 544.33 u/L | CREATININE [2]: 0.22 mg/dL | GLUCOSE [2]: 130.33 mg/dL | LACTATE DEHYDROGENASE [2]: 248.67 u/L | LIPASE [2]: 9.33 u/L | PHOSPHORUS [2]: 11.67 mg/dL | POTASSIUM [2]: 5.57 MEQ/L | SODIUM [2]: 142.23 MEQ/L | TOTAL BILIRUBIN [2]: 0.27 mg/dL | TOTAL PROTEIN [2]: 5.4 G/DL | URIC ACID [2]: 1.83 mg/dL | ABSOLUTE BASOPHIL [3]: 0 CELLS/uL | ABSOLUTE EOSINOPHIL [3]: 0 CELLS/uL | ABSOLUTE LYMPHOCYTE [3]: 3825 CELLS/uL | ABSOLUTE MONOCYTE [3]: 102 CELLS/uL | ABSOLUTE SEGMENTED NEUTROPHIL [3]: 1173 CELLS/uL | BASOPHIL [3]: 0% | EOSINOPHIL [3]: 0% | ERYTHROCYTE COUNT [3]: 7.26 x10E6/uL | HEMATOCRIT [3]: 41.8% | HEMOGLOBIN [3]: 16.5 G/DL | LEUKOCYTE COUNT [3]: 5.1 x10E3/uL | LYMPHOCYTE [3]: 75% | MEAN CORPUSCULAR HEMOGLOBIN [3]: 22.7 pg | MEAN CORPUSCULAR HEMOGLOBIN CONCENTRATION [3]: 39.5 G/DL | MEAN CORPUSCULAR VOLUME [3]: 57.6 fL | MONOCYTE [3]: 2% | NEUTROPHIL [3]: 23% | NUCLEATED RED BLOOD CELLS [3]: 0 /100WBC | PLATELET COUNT [3]: 1575 x10E3/uL | ALANINE AMINOTRANSFERASE [3]: 38 u/L | ALBUMIN [3]: 3.9 G/DL | ALKALINE PHOSPHATASE [3]: 162 u/L | ASPARTATE AMINOTRANSFERASE [3]: 70 u/L | BLOOD UREA NITROGEN [3]: 24 mg/dL | CARBON DIOXIDE [3]: 25 mmol/L | CHLORIDE [3]: 100 MEQ/L | CHOLESTEROL [3]: 64 mg/dL | CREATINE PHOSPHOKINASE [3]: 119 u/L | CREATININE [3]: 0.1 mg/dL | GLUCOSE [3]: 89 mg/dL | LACTATE DEHYDROGENASE [3]: 148 u/L | LIPASE [3]: 7 u/L | PHOSPHORUS [3]: 15.2 mg/dL | POTASSIUM [3]: 4.09 MEQ/L | SODIUM [3]: 144.1 MEQ/L | TOTAL BILIRUBIN [3]: 0.5 mg/dL | TOTAL PROTEIN [3]: 5.9 G/DL | URIC ACID [3]: 2.1 mg/dL
